Laboratory results from US6914045B2, “Glycopeptide antibiotics” (Wyeth Holdings Corporation, priority 2001, dated 2005).
Converted amounts (≈) assume the structure as drawn.

Columns and labels:
Experiment in all cases: in vitro antibacterial evaluation, MIC by broth dilution
Format in all cases: cell-based
Enterococcus sp. = conditions: broth dilution, 18 hours at 35° C.
In short: (§1)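 Step 1: dilute antibiotic across 64-0.06 μg/mL in Muller-Hinton II […]. Step 2: inoculate at 5×10^5 CFU/mL.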

Streptococcus sp. = conditions: broth dilution, 18 hours at 35° C.
In short: as §1

Staphylococcus sp. = conditions: broth dilution, 18 hours at 35° C.
In short: as §1

Escherichia coli = conditions: 18 hours at 35° C.

MIC Enterococcus avium (GC 4558) (Enterococcus sp.): 2 µg/mL (≈ 1.35 µM)
MIC Enterococcus faecalis (ATCC 29212) (Enterococcus sp.): 4 µg/mL (≈ 2.71 µM)
MIC Enterococcus faecalis (GC 2242) (Enterococcus sp.): 4 µg/mL (≈ 2.71 µM)
MIC Enterococcus faecalis (GC 2691) (Enterococcus sp.): 2 µg/mL (≈ 1.35 µM)
MIC Enterococcus faecalis (GC 3059) (Enterococcus sp.): 2 µg/mL (≈ 1.35 µM)
MIC Enterococcus faecalis (GC 4552) (Enterococcus sp.): 4 µg/mL (≈ 2.71 µM)
MIC Enterococcus faecalis (GC 4553) (Enterococcus sp.): 4 µg/mL (≈ 2.71 µM)
MIC Enterococcus faecalis (GC 4554) (Enterococcus sp.): 4 µg/mL (≈ 2.71 µM)
MIC Enterococcus faecalis (GC 6189) (Enterococcus sp.): 2 µg/mL (≈ 1.35 µM)
MIC Enterococcus faecium (GC 2243) (Enterococcus sp.): 4 µg/mL (≈ 2.71 µM)
MIC Enterococcus faecium (GC 4556) (Enterococcus sp.): 4 µg/mL (≈ 2.71 µM)
MIC Enterococcus faecium (GC 4557) (Enterococcus sp.): 2 µg/mL (≈ 1.35 µM)
MIC Enterococcus faecalis (ATCC 29212) (Enterococcus sp.; strain ATCC 29212): 4 µg/mL (≈ 2.71 µM)
MIC Enterococcus faecium (GC 2243) (Enterococcus sp.; strain GC 2243): 4 µg/mL (≈ 2.71 µM)
MIC Enterococcus faecalis (GC 4552) (Enterococcus sp.; strain GC 4552): 4 µg/mL (≈ 2.71 µM)
MIC Enterococcus faecalis (GC 4553) (Enterococcus sp.; strain GC 4553): 4 µg/mL (≈ 2.71 µM)
MIC Enterococcus faecalis (GC 4554) (Enterococcus sp.; strain GC 4554): 4 µg/mL (≈ 2.71 µM)
MIC Enterococcus faecium (GC 4556) (Enterococcus sp.; strain GC 4556): 4 µg/mL (≈ 2.71 µM)
MIC Enterococcus faecium (GC 4557) (Enterococcus sp.; strain GC 4557): 2 µg/mL (≈ 1.35 µM)
MIC Enterococcus avium (GC 4558) (Enterococcus sp.; strain GC 4558): 2 µg/mL (≈ 1.35 µM)
MIC Enterococcus faecalis (GC 6189) (Enterococcus sp.; strain GC 6189): 2 µg/mL (≈ 1.35 µM)
MIC Enterococcus faecalis (GC 2242) (Enterococcus sp.; inoculum 5×10^5 CFU/mL, strain GC 2242): 4 µg/mL (≈ 2.71 µM)
MIC Enterococcus faecalis (GC 2691) (Enterococcus sp.; inoculum 5×10^5 CFU/mL, strain GC 2691): 2 µg/mL (≈ 1.35 µM)
MIC Enterococcus faecalis (GC 3059) (Enterococcus sp.; inoculum 5×10^5 CFU/mL, strain GC 3059): 2 µg/mL (≈ 1.35 µM)
MIC Streptococcus agalactiae (GC 4564) (Streptococcus sp.): 0.12 µg/mL (≈ 0.0812 µM)
MIC Streptococcus pneumoniae (ATCC 6301) (Streptococcus sp.): <0.06 µg/mL
MIC Streptococcus pneumoniae (GC 1894) (Streptococcus sp.): <0.06 µg/mL
MIC Streptococcus pneumoniae (GC 4565) (Streptococcus sp.): <0.06 µg/mL
MIC Streptococcus pyogenes (GC 4563) (Streptococcus sp.): <0.06 µg/mL
MIC Streptococcus pneumoniae (ATCC 6301) (Streptococcus sp.; inoculum 5×10^5 CFU/mL, strain ATCC 6301): <0.06 µg/mL
MIC Streptococcus pneumoniae (GC 1894) (Streptococcus sp.; inoculum 5×10^5 CFU/mL, strain GC 1894): <0.06 µg/mL
MIC Streptococcus pyogenes (GC 4563) (Streptococcus sp.; inoculum 5×10^5 CFU/mL, strain GC 4563): <0.06 µg/mL
MIC Streptococcus agalactiae (GC 4564) (Streptococcus sp.; inoculum 5×10^5 CFU/mL, strain GC 4564): 0.12 µg/mL (≈ 0.0812 µM)
MIC Streptococcus pneumoniae (GC 4565) (Streptococcus sp.; inoculum 5×10^5 CFU/mL, strain GC 4565): <0.06 µg/mL
MIC Coagulase Negative Staphylococcus (GC 4547) (Staphylococcus sp.): 2 µg/mL (≈ 1.35 µM)
MIC Coagulase Negative Staphylococcus (GC 4548) (Staphylococcus sp.): 0.5 µg/mL (≈ 0.338 µM)
MIC Coagulase Negative Staphylococcus (GC 4549) (Staphylococcus sp.): 0.5 µg/mL (≈ 0.338 µM)
MIC Coagulase Negative Staphylococcus (GC 4551) (Staphylococcus sp.): 2 µg/mL (≈ 1.35 µM)
MIC Coagulase Negative Staphylococcus (GC 6257) (Staphylococcus sp.): 1 µg/mL (≈ 0.677 µM)
MIC Staphylococcus aureus (ATCC 29213) (Staphylococcus sp.): 2 µg/mL (≈ 1.35 µM)
MIC Staphylococcus aureus (GC 1131) (Staphylococcus sp.): 2 µg/mL (≈ 1.35 µM)
MIC Staphylococcus aureus (GC 3051) (Staphylococcus sp.): 2 µg/mL (≈ 1.35 µM)
MIC Staphylococcus aureus (GC 3053) (Staphylococcus sp.): 2 µg/mL (≈ 1.35 µM)
MIC Staphylococcus aureus (GC 4541) (Staphylococcus sp.): 2 µg/mL (≈ 1.35 µM)
MIC Staphylococcus aureus (GC 4542) (Staphylococcus sp.): 4 µg/mL (≈ 2.71 µM)
MIC Staphylococcus aureus (GC 4544) (Staphylococcus sp.): 2 µg/mL (≈ 1.35 µM)
MIC Staphylococcus aureus (GC 4545) (Staphylococcus sp.): 2 µg/mL (≈ 1.35 µM)
MIC Staphylococcus aureus-SMITH (GC 4543) (Staphylococcus sp.): 2 µg/mL (≈ 1.35 µM)
MIC Staphylococcus aureus (ATCC 29213) (Staphylococcus sp.; strain ATCC 29213): 2 µg/mL (≈ 1.35 µM)
MIC Staphylococcus aureus (GC 1131) (Staphylococcus sp.; strain GC 1131): 2 µg/mL (≈ 1.35 µM)
MIC Staphylococcus aureus (GC 3051) (Staphylococcus sp.; strain GC 3051): 2 µg/mL (≈ 1.35 µM)
MIC Staphylococcus aureus (GC 3053) (Staphylococcus sp.; strain GC 3053): 2 µg/mL (≈ 1.35 µM)
MIC Staphylococcus aureus (GC 4541) (Staphylococcus sp.; strain GC 4541): 2 µg/mL (≈ 1.35 µM)
MIC Staphylococcus aureus (GC 4542) (Staphylococcus sp.; strain GC 4542): 4 µg/mL (≈ 2.71 µM)
MIC Staphylococcus aureus-SMITH (GC 4543) (Staphylococcus sp.; strain GC 4543): 2 µg/mL (≈ 1.35 µM)
MIC Staphylococcus aureus (GC 4544) (Staphylococcus sp.; strain GC 4544): 2 µg/mL (≈ 1.35 µM)
MIC Staphylococcus aureus (GC 4545) (Staphylococcus sp.; strain GC 4545): 2 µg/mL (≈ 1.35 µM)
MIC Coagulase Negative Staphylococcus (GC 4547) (Staphylococcus sp.; strain GC 4547): 2 µg/mL (≈ 1.35 µM)
MIC Coagulase Negative Staphylococcus (GC 4548) (Staphylococcus sp.; strain GC 4548): 0.5 µg/mL (≈ 0.338 µM)
MIC Coagulase Negative Staphylococcus (GC 4549) (Staphylococcus sp.; strain GC 4549): 0.5 µg/mL (≈ 0.338 µM)
MIC Coagulase Negative Staphylococcus (GC 4551) (Staphylococcus sp.; strain GC 4551): 2 µg/mL (≈ 1.35 µM)
MIC Coagulase Negative Staphylococcus (GC 6257) (Staphylococcus sp.; strain GC 6257): 1 µg/mL (≈ 0.677 µM)
MIC Escherichia coli (ATCC 25922) (Escherichia coli): >64 µg/mL
MIC Escherichia coli (GC 4559) (Escherichia coli): >64 µg/mL
MIC Escherichia coli (GC 4560) (Escherichia coli): 1 µg/mL (≈ 0.677 µM)
Structure (SMILES): CC(c1ccccc1)C1NC(=O)CNC(=O)C(CO)NC(=O)C(C(O)C2CNC(=N)N2C2OC(CO)C(O)C(O)C2O)NC(=O)C(C(O)C2CNC(=N)N2)NC(=O)C(Cc2ccc(OC3OC(CO)C(OC4OC(COCc5ccc(Oc6ccccc6)cc5)C(O)C(O)C4O)C(O)C3O)cc2)NC1=O (stereo not shown) [Example 236]
MIC Staphylococcus haemolyticus (GC 4546) (Staphylococcus sp.): 2 µg/mL (≈ 1.35 µM)
MIC Staphylococcus haemolyticus (GC 4546) (Staphylococcus sp.; strain GC 4546): 2 µg/mL (≈ 1.35 µM)
